# Patent US9775902B2, “Compounds and methods for treatment of stroke” (FIBROGEN, INC, priority 2006, dated 2017)
# Columns and labels:
# Type in all cases: in vivo
# [1] = tested on: Wistar rats, transient occlusion of the middle cerebral artery; assay: Rat model of transient middle cerebral artery occlusion (tMCAO): infarct volume and edema at 48 hours
# From the text: The effect of compounds of the present invention on infarct volume and edema was examined in an animal model of ischemic stroke. For these studies, male Wistar rats (320 g) were subjected to transient occlusion of the middle cerebral artery. Rats were anesthetized with 3% isoflurane in oxygen. Aseptic technique was used for all procedures during these studies. The surgical site was clipped and cleaned with alcohol and surgical scrub. Each animal was placed on a warm water heating pad to maintain body temperature. A paramedian incision was made on the neck over the carotid artery. The tissue was bluntly dissected away to reveal the carotid artery and the carotid artery bifurcation. Sutures were placed around the proximal portion of the common carotid and the external carotid arteries and were then tied off. An incision was made in the common carotid, distal to the ligation and a pre-prepared filament (3-0 monofilament suture or like material) was placed in the carotid and advanced into the internal carotid artery. The filament was advanced approximately 20 millimeters past the carotid bifurcation until slight resistance was felt as it wedged inside the middle cerebral artery (MCA). Care was taken to not rupture the artery upon insertion of the filament. The filament was tied in place and the skin incision closed. At this time isoflurane was discontinued and the animals were allowed to awaken.
# One hour after surgery, the success of MCA occlusion was assessed using the Bederson scale, as previously described. (See Bederson et al., (1986) Stroke, 17:1304-1308.) Sixty minutes after occlusion, the animals were re-anesthetized for reperfusion. The skin incision was reopened and the filament was carefully withdrawn from the MCA but not completely removed. Body temperature was taken every 15 minutes throughout the study to maintain normothermia. Animals that have undergone the MCA occlusion procedure may have difficulty in thermoregulation for a few hours after surgery. Animals were placed in a cooling or heating box as determined by their body temperature. Body temperature was maintained at 37.5° C.
# Various compounds of the present invention were administered by oral gavage (p.o.) at reperfusion or at reperfusion and again at 24 hours after reperfusion in 0.5% CMC and 0.1% Polysorbate 80 at various doses (see Table 10 below). Forty-eight hours after MCA occlusion animals were euthanized with CO2 and their brains removed. After removal, the brain was sliced into 7 coronal sections, 2 mm thick. The sections were placed rostral side down in a petri dish and stained with 1% Triphenyl tetrazolium chloride for 20 minutes at 37° C. for determination of infarct volume. Brain sections were then digitally photographed and analyzed for changes in infarct volume and extent of edema. Infarct volumes were determined by measuring the infarcted (i.e., non-stained) areas of each brain section and multiplying this value by the section thickness. Extent of edema was determined by the net increase in volume of the ipsilateral cortex compared to that of the contralateral cortex of brain sections.
# [2] = tested on: db/db mice, permanent occlusion of the MCA; assay: pMCAO in db/db mice: infarct volume; conditions: 20 mg/kg i.v. immediately after MCA occlusion, 24 hours
# Procedure: The effect of compounds of the present invention on infarct volume and edema associated with stroke was examined in an animal model of ischemic stroke. In these studies, mice were subjected to permanent occlusion of the middle cerebral artery. Mice were anesthetized intraperitoneally with avertin (0.5 mg/g). Mice were then immobilized in a rodent stereotaxic frame (Kopf Instruments, Tujunga Calif.) and maintained with avertin as needed. The surgical area of the head was swabbed with 70% ethanol and a lateral incision was made between the right orbit and the right ear. […] The distal course of the middle cerebral artery (MCA) was visible through the translucent skull. A small burr-hole craniotomy was performed with a micro-drill (Fine Science Tools, Foster City Calif.). The meninges/dura was removed and the MCA was coagulated by bipolar diathermy. The muscle and soft tissue were replaced and the incision closed with vet-bond adhesive (3M, St. Paul Minn.). These studies were performed in two different mouse models of pMCAO as described below.
# To evaluate the effect of compounds of the present invention on infarct volume in an animal model of diabetes, db/db mice were subjected to ischemic stroke. Eight week-old male db/db mice were subjected to permanent occlusion of the MCA as described above. […] Changes in infarct volumes were determined as described above.
# [3] = tested on: Wistar rats, transient occlusion of the MCA; assay: Rat tMCAO, 28 days: lesion area, neuronal degeneration, brain tissue loss (Fluoro-Jade B); conditions: 60 mg/kg p.o. at 1.5 and 24 hours after reperfusion then 30 mg/kg every other day, vs non-treated control
# Procedure: In another series of experiments, the long term effect of administration of compounds of the present invention on stroke and brain tissue damage associated with stroke was examined. For these studies, the effect of compounds of the present invention on lesion area, neuronal degeneration, and brain tissue loss following stroke was examined 28 days after transient MCA occlusion. Wistar rats (320 g) were subjected to transient occlusion of the MCA as described above. Compound F (60 mg/kg) was administered by oral gavage at 1.5 hours and 24 hours after reperfusion and subsequently every other day (using a dose of 30 mk/kg, p.o.) for 28 days. Twenty-eight days after transient MCA occlusion, animals were anesthetized with 3% isoflurane in oxygen and transcardially perfused with 100 ml of 0.9% saline solution (Hospira Inc, Lake Forest Ill.). Brains were removed and sliced into 6 coronal sections, 2 mm thick, and embedded in cryomold standard (Sakura Finetek, Ca) using O.C.T. embedded medium (Sakura Finetek, Ca). […]
# Changes in lesion area were measured as follows. […] Lesion area was determined by measuring the infarcted (i.e., non-Fluoro-Jade B stained) areas of each brain section. […]
# Changes in neuronal degeneration were measured as follows. […] Fluoro-Jade B positive cells observed in the digital photographs were quantified using Image Pro-Plus image analysis software (Media Cybernetics, Silver Spring Md.). Extent of neuronal degeneration was determined by comparing the total number of Fluoro-Jade B positive cells per mm^2 area of the treated group to the same area of the corresponding vehicle-control group. The distance of each coronal section from bregma was determined.
# Changes in area of brain tissue loss were measured as follows. […] Area of brain tissue loss, associated with the ischemic insult, was measured by […]. A percentage value was then determined by dividing the area of brain tissue loss associated with the stroke by the total area of the contralateral hemisphere. […]
# [4] = p.o. 6 mg/kg at reperfusion, 48 hours after MCA occlusion
# [5] = 1 Dose 60 mg/kg p.o. at reperfusion
# [6] = 2 Doses 60 mg/kg p.o., at reperfusion and 24 hours later
# [7] = p.o. 60 mg/kg at reperfusion, 48 hours after MCA occlusion
Structure (SMILES),"Percent Reduction in Edema [1, 4] [%]","Percent Reduction in Infarct Volume [1, 4] [%]",reduction in infarct volume [2] [%],"Percent Reduction in Edema [1, 5] [%]","Percent Reduction in Infarct Volume [1, 5] [%]","Percent Reduction in Edema [1, 6] [%]","Percent Reduction in Infarct Volume [1, 6] [%]","Percent Reduction in Edema [1, 7] [%]","Percent Reduction in Infarct Volume [1, 7] [%]",lesion area ([3]; FIG. 1),neuronal degeneration (Fluoro-Jade B positive cells) ([3]; FIG. 2),brain tissue loss ([3]; FIG. 3)
"N#Cc1nc(C(=O)NCC(=O)O)c(O)c2c(Oc3ccc(F)cc3)cccc12 [Compound AS, {[1-Cyano-5-(4-fluoro-phenoxy)-4-hydroxy-isoquinoline-3-carbonyl]-amino}-acetic acid]",32,58,,,,,,,,,,
"Cc1cccc(C)c1Oc1ccc2c(C#N)nc(C(=O)NCC(=O)O)c(O)c2c1 [Compound AL, {[1-Cyano-6-(2,6-dimethyl-phenoxy)-4-hydroxy-isoquinoline-3-carbonyl]-amino}-acetic acid]",12,51,,,,,,,,,,
"COc1ccc(Oc2ccc3c(O)c(C(=O)NCC(=O)O)ncc3c2)cc1 [Compound F, {[4-Hydroxy-7-(4-methoxy-phenoxy)-isoquinoline-3-carbonyl]-amino}-acetic acid]",,,52,28,42,39,70,39,70,reduced,reduced,reduced
